Results from ChEMBL document CHEMBL1201862, “PubChem BioAssay data set” (2004).
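Method: 48-hour compound exposure of cells in 96-well plates, five concentrations, linear interpolation of endpoints. GI50 = concentration required for 50% inhibition of growth.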 Activity calls are given as the source filed them. Rule as the data show it: active = GI50 up to about 1.1 µM and inactive = higher.

Tests used:
Assay in all cases: DTP human tumour cell line panel, 48 h
DU-145 = test system: DU-145
SW-620 = test system: SW-620
NCI-H522 = test system: NCI-H522
NCI-H23 = test system: NCI-H23
SK-MEL-28 = test system: SK-MEL-28
OVCAR-3 = test system: OVCAR-3
A549 = test system: A549
SNB-75 = test system: SNB-75
NCI/ADR-RES = test system: NCI/ADR-RES
HT-29 = test system: HT-29
IGROV-1 = test system: IGROV-1
SN12C = test system: SN12C
CCRF-CEM = test system: CCRF-CEM
NCI-H460 = test system: NCI-H460
HOP-92 = test system: HOP-92
SNB-19 = test system: SNB-19
UACC-257 = test system: UACC-257
PC-3 = test system: PC-3
SK-OV-3 = test system: SK-OV-3
HCC 2998 = test system: HCC 2998

Measured: GI50

Nc1ccccc1.O=C(O)C(C(F)(F)F)C(F)(F)F
inactive: DU-145 99.5 µM | SW-620 > 100 µM | NCI-H522 > 100 µM | NCI-H23 > 100 µM | SK-MEL-28 > 100 µM | OVCAR-3 > 100 µM | A549 > 100 µM | SNB-75 > 100 µM | NCI/ADR-RES > 100 µM | HT-29 > 100 µM | IGROV-1 > 100 µM | SN12C > 100 µM | CCRF-CEM > 100 µM | NCI-H460 > 100 µM | HOP-92 > 100 µM | SNB-19 > 100 µM | UACC-257 > 100 µM | PC-3 > 100 µM | SK-OV-3 > 100 µM

CCCCOC(=O)C1CN2C(=NC1(C(F)(F)F)C(F)(F)F)Sc1ccccc12 (configuration not stated)
inactive: DU-145 67.1 µM | SW-620 49.5 µM | NCI-H23 24.5 µM | SK-MEL-28 74.5 µM | OVCAR-3 58.5 µM | A549 40.5 µM | SNB-75 35.1 µM | NCI/ADR-RES 27 µM | HT-29 22.5 µM | IGROV-1 11 µM | SN12C 98.4 µM | CCRF-CEM 30.2 µM | NCI-H460 34.9 µM | HOP-92 72.4 µM | SNB-19 96.2 µM | UACC-257 36.1 µM | PC-3 16.2 µM | SK-OV-3 78.5 µM

C=C1CN2CC(=C)CN(C1)CS(=O)(=O)N1CC(=C)CN(CC(=C)C1)S(=O)(=O)N1CC(=C)CN(CC(=C)C1)S(=O)(=O)C2
inactive: DU-145 38.3 µM | SW-620 71.8 µM | NCI-H522 32.4 µM | NCI-H23 78.7 µM | HCC 2998 17.7 µM | SK-MEL-28 20.3 µM | OVCAR-3 > 100 µM | A549 50.8 µM | NCI/ADR-RES > 100 µM | HT-29 > 100 µM | IGROV-1 59.8 µM | SN12C 43.4 µM | NCI-H460 > 100 µM | HOP-92 31.3 µM | SNB-19 40.7 µM | UACC-257 23.6 µM | PC-3 17.7 µM

Cc1cc([N+](=O)[O-])c(C)c(Br)c1C
inactive: DU-145 > 100 µM | SW-620 > 100 µM | NCI-H522 > 100 µM | NCI-H23 > 100 µM | SK-MEL-28 > 100 µM | OVCAR-3 > 100 µM | A549 > 100 µM | SNB-75 25.2 µM | NCI/ADR-RES > 100 µM | HT-29 > 100 µM | IGROV-1 > 100 µM | SN12C > 100 µM | NCI-H460 > 100 µM | HOP-92 62.2 µM | SNB-19 > 100 µM | UACC-257 > 100 µM | PC-3 > 100 µM | SK-OV-3 > 100 µM

COc1cc2c(c(OC)c1OC)C(=O)[C@H]1OC(=O)N[C@@H]21
inactive: DU-145 > 100 µM | SW-620 > 100 µM | NCI-H23 > 100 µM | HCC 2998 > 100 µM | SK-MEL-28 > 100 µM | OVCAR-3 > 100 µM | A549 > 100 µM | SNB-75 > 100 µM | NCI/ADR-RES > 100 µM | HT-29 > 100 µM | SN12C > 100 µM | CCRF-CEM > 100 µM | HOP-92 > 100 µM | SNB-19 > 100 µM | UACC-257 > 100 µM | PC-3 > 100 µM | SK-OV-3 > 100 µM

O=C1c2cc([N+](=O)[O-])ccc2-c2ccc3c4ccc5c6c(ccc(c7ccc1c2c73)c64)C(=O)c1cc([N+](=O)[O-])ccc1-5
inactive: DU-145 > 100 µM | SW-620 > 100 µM | NCI-H522 > 100 µM | NCI-H23 > 100 µM | SK-MEL-28 > 100 µM | OVCAR-3 > 100 µM | A549 > 100 µM | SNB-75 > 100 µM | NCI/ADR-RES > 100 µM | HT-29 > 100 µM | IGROV-1 > 100 µM | SN12C > 100 µM | CCRF-CEM > 100 µM | HOP-92 > 100 µM | SNB-19 > 100 µM | UACC-257 > 100 µM | PC-3 > 100 µM | SK-OV-3 > 100 µM

CC(=O)O[C@H]1CCC2[C@@H]3CCC4Cc5nc6c(nc5C[C@]4(C)C3CC[C@@]21C)CC1CC[C@@H]2C(CC[C@@]3(C)C2CC[C@@H]3C(C)CCCC(C)C)[C@@]1(C)C6 (some centres not stated)
inactive: DU-145 > 100 µM | SW-620 > 100 µM | NCI-H23 > 100 µM | SK-MEL-28 > 100 µM | OVCAR-3 > 100 µM | A549 > 100 µM | SNB-75 > 100 µM | NCI/ADR-RES > 100 µM | HT-29 > 100 µM | IGROV-1 > 100 µM | SN12C > 100 µM | CCRF-CEM > 100 µM | NCI-H460 > 100 µM | HOP-92 > 100 µM | SNB-19 > 100 µM | UACC-257 > 100 µM | PC-3 > 100 µM | SK-OV-3 > 100 µM

NC(=O)c1csc(-c2ccc(CO)o2)n1
inactive: DU-145 > 100 µM | SW-620 > 100 µM | NCI-H522 > 100 µM | NCI-H23 > 100 µM | SK-MEL-28 > 100 µM | OVCAR-3 > 100 µM | A549 > 100 µM | NCI/ADR-RES > 100 µM | HT-29 > 100 µM | IGROV-1 > 100 µM | SN12C > 100 µM | NCI-H460 > 100 µM | HOP-92 > 100 µM | SNB-19 > 100 µM | UACC-257 > 100 µM | PC-3 > 100 µM | SK-OV-3 > 100 µM
